We go through five molecules from US9950987B2, “Aspirin derivatives and uses thereof” (North Carolina Agricultural and Technical State University, priority 2012, dated 2018).

“Also recorded” adds a separate entry of the source.

For series [1], the system named is HCT-116 human colon cancer cells. Kind of series: MTT growth inhibition assay, HCT-116. The format is cell-based. The conditions noted are these: 48 h, relative to control. The method, then: (§1) The effects of the aspirin-stilbene derivative conjugates compared to standards were evaluated based on the inhibition of growth of HCT-116 and HT-29 human colon cancer cells. Cells were plated in 96-well plates in growth medium with 10% FBS. After 24 h, the medium was replaced with fresh medium containing test agent with desired final concentration (20, 30, 40, 50, and 60 μM), and the cells were incubated for 48 h. Viable cells were analyzed using the MTT assay, and the results are shown (FIG. 1) relative to control. Each value represents the mean±S.D. (n=8). FIG. 1, Panel A summarizes the results for aspirin (As), Res, RAS, RAS-1, and the combination of resveratrol and aspirin (Res+As). […] FIG. 1, Panel B summarizes the results for As, MRes, MRAS and the combination of MRes and aspirin (MRes+As). […] FIG. 1, Panel C summarizes the results for As, Pt, PAS, and the combination of pterostilbene and aspirin (Pt+As).
(§2) The effects of As, 6-shogaol (6-s), SAS and the combination of 6-shogaol and aspirin (6-s+As) on the growth of HCT-116 and HT-29 human colon cancer cells and H1299 human lung cancer cells were measured. Cells were plated in 96-well plates in growth medium with 10% FBS. After 24 h, the medium was replaced with fresh medium containing test agent with desired final concentration (5, 7.5, 10, 15, and 20 μM), and the cells were incubated for 48 h. Viable cells were analyzed using the MTT assay, and the results are shown relative to control (FIG. 2).
(§3) The effects of As, 6-gingerol (6g), GAS, and the combination of 6-gingerol and aspirin (6g+As) on the growth of HCT-116 and HT-29 human colon cancer cells and H1299 human lung cancer cells were measured. Cells were plated in 96-well plates in growth medium with 10% FBS. After 24 h, the medium was replaced with fresh medium containing test agent with desired final concentration (20, 40, 60, 80, and 100 μM), and the cells were incubated for 48 h. Viable cells were analyzed using the MTT assay, and the results are shown relative to control (FIG. 3).
Background: Tetrazolium dyes change colour on reduction, which living cells bring about.

For series [2], the system named is HT-29 human colon cancer cells. The series is described as follows: MTT growth inhibition assay, HT-29. Type of series: cell-based. Conditions: 48 h, relative to control. The method, then:
as §1, §2, §3

The test system of series [3] is H1299 human lung cancer cells. The series is described as follows: MTT growth inhibition assay, H1299. Type of series: cell-based. Conditions: 48 h, relative to control. The method, then:
as §2, §3

Series [4] can be described thus: Urinary metabolic profile in mice (LC/MS). The format is in vivo. The conditions noted are these: oral gavage 200 mg/kg, 24 h urine, FIG. 5. The method, then: The metabolic profile of Pt using LC/MS 23 was investigated. PAS was administered to mice (n=5) by oral gavage (200 mg/kg), and urine samples were collected in metabolism cages for 24 h after administration of vehicle (control mice) or PAS. LC/MS methods were developed to analyze PAS, pterostilbene, and aspirin. LC chromatograms of urine samples collected from PAS-treated mice obtained using positive APCI-MS interface (FIG. 5): (A) before and (B) after enzymatic hydrolysis (treated with β-glucuronidase and sulfatase); using negative ESI-MS interface: (C) before and (D) after enzymatic hydrolysis.
PAS had the highest response under positive APCI/MS mode, and aspirin and salicylic acid had the highest response under negative ESI/MS mode. Both positive APCI/MS and negative ESI/MS modes are sensitive to pterostilbene. However, aspirin and salicylic acid are hardly detectable under positive APCI/MS mode, and PAS is not detectable under negative ESI/MS mode. Therefore, APCI/MS positive mode was used to analyze PAS, pterostilbene, and their metabolites, and ESI/MS negative mode was used to analyze aspirin, pterostilbene, and their metabolites.

Series [5] has as its system human colon cancer cells (HCT-116).
In series [6] the test system is human colon cancer cells (HT-29).

`CCCCCC(O)CC(=O)CCc1ccc(OC(=O)c2ccccc2OC(C)=O)c(OC)c1` (stereo not shown) [GAS, 6-gingerol aspirinate]: the growth inhibitory effect result in series [1] (20, 40, 60, 80, 100 μM, FIG. 3) is “much stronger growth inhibitory effect than 6-gingerol and aspirin alone, as well as the combination of 6-gingerol and aspirin (1:1)”; in series [2] (20, 40, 60, 80, 100 μM, FIG. 3) it was “much stronger growth inhibitory effect than 6-gingerol and aspirin alone, as well as the combination of 6-gingerol and aspirin (1:1)”; in series [3] (20, 40, 60, 80, 100 μM, FIG. 3), “much stronger growth inhibitory effect than 6-gingerol and aspirin alone, as well as the combination of 6-gingerol and aspirin (1:1)”.
`COc1cc(C=Cc2ccc(OC(=O)c3ccccc3OC(C)=O)cc2)cc(OC)c1` [PAS, pterostilbene aspirinate]: the growth inhibitory effect entry in series [1] (20, 30, 40, 50, 60 μM, FIG. 1) is “weaker growth inhibitory effects than pterostilbene and the combination of pterostilbene and aspirin (1:1)”; in series [2] (20, 30, 40, 50, 60 μM, FIG. 1), “weaker growth inhibitory effects than pterostilbene and the combination of pterostilbene and aspirin (1:1)”. The “detection of parent compound or deacetylated metabolites in urine” value in series [4] is reported as “neither PAS nor its deacetylated metabolites were detected”. Besides, the “hydrolysis in vivo (urinary metabolites)” value in series [4] was “hydrolyzed in mice to generate metabolites of aspirin and pterostilbene”.
As for `CC(=O)Oc1ccccc1C(=O)Oc1ccc(/C=C/c2cc(O)cc(O)c2)cc1` [RAS, 4′-aspirinated resveratrol], the growth inhibitory effect entry in series [1] (20, 30, 40, 50, 60 μM, FIG. 1) was “stronger growth inhibitory effect than resveratrol and aspirin alone, and stronger than the combination of resveratrol and aspirin (1:1); also recorded: much stronger growth inhibitory effects than RAS-1, MRAS, and PAS”; in series [2] (20, 30, 40, 50, 60 μM, FIG. 1) it was “stronger growth inhibitory effect than resveratrol and aspirin alone, and stronger than the combination of resveratrol and aspirin (1:1); also recorded: much stronger growth inhibitory effects than RAS-1, MRAS, and PAS”. The hydrolysis in cells result in series [5] was “hydrolyzed in human colon cancer cells (HCT-116 and HT-29) to generate resveratrol and aspirin”; in series [6], “hydrolyzed in human colon cancer cells (HCT-116 and HT-29) to generate resveratrol and aspirin”.
As for `CCCCC/C=C/C(=O)CCc1ccc(OC(=O)c2ccccc2OC(C)=O)c(OC)c1` [SAS, 6-shogaol aspirinate], the growth inhibitory effect result in series [1] (5, 7.5, 10, 15, 20 μM, FIG. 2) is “stronger growth inhibitory effect than aspirin alone, but less effective than 6-shogaol alone and the combination of 6-shogaol and aspirin (1:1)”; in series [2] (5, 7.5, 10, 15, 20 μM, FIG. 2) it was “stronger growth inhibitory effect than aspirin alone, but less effective than 6-shogaol alone and the combination of 6-shogaol and aspirin (1:1)”; in series [3] (5, 7.5, 10, 15, 20 μM, FIG. 2), “stronger growth inhibitory effect than aspirin alone, but less effective than 6-shogaol alone and the combination of 6-shogaol and aspirin (1:1)”.
As to “mono-methylated resveratrol aspirinate [MRAS]”, the growth inhibitory effect result in series [1] (20, 30, 40, 50, 60 μM, FIG. 1) is “weaker growth inhibitory effects than MRes and the combination of MRes and aspirin (1:1)”; in series [2] (20, 30, 40, 50, 60 μM, FIG. 1), “weaker growth inhibitory effects than MRes and the combination of MRes and aspirin (1:1)”.
